US20220024921A1, “1,3,4-OXADIAZOLONE COMPOUND AND PHARMACEUTICAL” (NIPPON SHINYAKU CO., LTD., priority 2018, published 2022)
Structures can show the parent of a compound that is named as a salt.

Tests used:
[1] = molecular target: PIM1 transgenic cells (Ba/F3) (Homo sapiens, UniProt P11309); assay: Proliferation inhibitory effect on PIM1 transgenic cells; assay type: cell-based, mouse; conditions: proliferation inhibition, 72 hours, Cell Counting Kit-8, read-out: PIM1 IC50
Source text: Human PIM1, 2, and 3 genes were inserted into the multi-cloning sites of retrovirus expression vectors pMYs-IRES-GFP, respectively, to prepare gene transfer vectors. Then, each gene transfer vector was introduced into packaging cells PLAT-E derived from a human fetal kidney cell line in the logarithmic growth phase, using a transfection reagent (FuGENE6, Promega Corporation). Since the culture supernatant of PLAT-E after gene transfer contained virus particles for gene transfer, the culture supernatant was collected and used as a medium for gene transfer. The medium for gene transfer was added to a plate coated with RetroNectin, and the plate was incubated to attach the virus particles to the plate. Then, a mouse pro-B cell line Ba/F3 in the logarithmic growth phase was seeded on the plate and infected with the virus to prepare PIM1, 2, or 3 transgenic cells that proliferate in a PIM 1, 2, or 3-dependent manner. The expression of PIM1, 2, or 3 protein in each cell was confirmed by Western blotting.
Each test substance was prepared to 10 mM with dimethylsulfoxide (DMSO), and diluted with DMSO so as to have concentrations of 3000, 1000, 300, 100, 30, 10, 3, and 1 μM. Moreover, each dilution was further diluted 10-fold with distilled water to prepare a test substance solution.
PIM1, 2, 3-expressing cells were seeded on a 96-well plate, and each test substance solution prepared the next day was added such that final concentrations were 10000, 3000, 1000, 300, 100, 30, 10, 3, and 1 nM. 72 hours after the addition, 10 μL of Cell Counting Kit-8 (DOJINDO LABORATORIES) was added to each well. After incubation for 1 to 4 hours, absorbance OD450 at 450 nm was measured. In addition, absorption OD650 at 650 nm as a reference wavelength was measured.
OD450-OD650 for each condition was calculated, and then the inhibition rates when OD450-OD650 of negative control (DMSO only) and OD450-OD650 of Blank (without cells) were set to 0% and 100%, respectively, were calculated. Then, non-linear regression analysis was performed for logarithmic dose and inhibition rate using a two-parameter logistic model to estimate IC50 values.

[2] = molecular target: T1, PIM1 serine/threonine kinase (Homo sapiens, UniProt P11309); assay: PIM1 serine/threonine kinase inhibitory effect; assay type: biochemical; conditions: PIM1 serine/threonine kinase activity; ATP 40 μM; 30° C., 30 minutes
T1 construct: purchased Carna Bioscience, Inc
Method: Each test substance was prepared to 10 mM with dimethylsulfoxide (DMSO), and further diluted with DMSO so as to have concentrations of 1000, 300, 100, 30, 10, 3, 1, 0.3, 0.1, 0.03, 0.01, and 0.001 μM. Moreover, each dilution was further diluted 33.3-fold with an assay buffer to prepare a test substance solution. The composition of the assay buffer was 50 mM HEPES (pH 7.0), 0.02% NaN3, 0.01% Bovine Serum Albumin, 0.1 mM Orthovanadate, 1 mM Dithiothreitol, and 5 mM MgCl2.
5 μL of each test substance solution was added to 384-well plates (n=2), and then 2.5 μL of a substrate solution (substrate 3-biotin (Cisbio Bioassays SAS), final concentration in the reaction solution: 0.5 μM) and 2.5 μL of an ATP solution (in the cases of PIM1, 2, 3, the final concentrations in the reaction solutions were 40, 2, and 10 μM, respectively) were added, 5 μL of each of PIM1, 2, 3 serine/threonine kinase solutions (Carna Bioscience, Inc., the final concentrations in the reaction solutions were 0.15, 1.6, and 0.25 μg/ml, respectively) was finally added, and the mixture was reacted at 30° C. for 30 minutes. The test substance concentrations in the reaction solutions are 10000, 3000, 1000, 300, 100, 30, 10, 3, 1, 0.3, 0.1, and 0.01 nM.
Thereafter, 15 μL of each detection solution (62.5 nM Streptavidin-XL665 (Cisbio Bioassays SAS), […] STK antibody-Cryptate (Cisbio Bioassays SAS), 50 mM HEPES (pH 7.0), 0.8 M KF, 0.1% Bovine Serum Albumin, 20 mM ethylenediaminetetraacetic acid) was added to each well. After stirring, the mixture was reacted at 30° C. for 1 hour. Absorbance (OD620, OD665) at 620 and 665 nm was measured with a microplate reader (SpectraMax M5e, Molecular Devices, LLC).
Non-linear regression analysis was performed by an SAS system (SAS Institute Inc.) using the ratio (OD665/OD620) of the measured absorbance to calculate a test substance concentration (IC50) that inhibits PIM1 serine/threonine kinase activity by 50%.

T1 sequence (P11309 whole entry): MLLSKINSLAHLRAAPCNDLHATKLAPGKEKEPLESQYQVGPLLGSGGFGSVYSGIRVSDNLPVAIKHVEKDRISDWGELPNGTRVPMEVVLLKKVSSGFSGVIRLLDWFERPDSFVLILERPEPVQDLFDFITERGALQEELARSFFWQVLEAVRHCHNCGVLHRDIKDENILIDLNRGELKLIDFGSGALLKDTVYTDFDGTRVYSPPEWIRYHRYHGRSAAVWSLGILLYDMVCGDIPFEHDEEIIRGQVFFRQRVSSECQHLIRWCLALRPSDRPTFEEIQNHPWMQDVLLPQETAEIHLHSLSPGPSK
Chain of PIM1 transgenic cells (Ba/F3) (P11309 whole entry, stated change not applied): as the sequence (P11309 whole entry) above

| GI50 [1] | IC50 [2] | SMILES |
| --- | --- | --- |
| 680 nM | 15 nM | C[C@@H](C1CCNCC1)N1CCCOc2c(F)cc(-c3n[nH]c(=O)o3)cc21 [Example 254, 5-{9-fluoro-5-[(1S)-1-(piperidin-4-yl)ethyl]-2,3,4,5-tetrahydro-1,5-benzoxazepin-7-yl}-1,3,4-oxadiazol-2(3H)-one hydrochloride] |
| 250 nM | 9.2 nM | C[C@H](Nc1cc(-c2n[nH]c(=O)o2)ccc1C(F)(F)F)[C@H]1C[C@@H](NCC2CC2)C1 [Example 196, 5-[3-{[(1S)-1-{(1s,3R)-3-[(cyclopropylmethyl)amino]cyclobutyl}ethyl]amino}-4-(trifluoromethyl)phenyl]-1,3,4-oxadiazol-2(3H)-one hydrochloride] |
| 80 nM | 2.6 nM | CC[C@H](Nc1cc(-c2n[nH]c(=O)o2)cc(F)c1Cl)C1CCNCC1 [Example 139, 5-(4-chloro-3-fluoro-5-{[(1S)-1-(piperidin-4-yl)propyl]amino}phenyl)-1,3,4-oxadiazol-2(3H)-one hydrochloride] |
| 500 nM | 11 nM | CC(CCCCN)Nc1cc(-c2n[nH]c(=O)o2)ccc1C(F)(F)F (stereo not shown) [Example 5, 5-{3-[(6-aminohexan-2-yl)amino]-4-(trifluoromethyl)phenyl}-1,3,4-oxadiazol-2(3H)-one hydrochloride] |
| 64 nM | 1.2 nM | C[C@H](Nc1c(F)c(-c2n[nH]c(=O)o2)cc(Cl)c1Cl)C1CCNCC1 [Example 87, 5-(4,5-dichloro-2-fluoro-3-{[(1S)-1-(piperidin-4-yl)ethyl]amino}phenyl)-1,3,4-oxadiazol-2(3H)-one hydrochloride] |
| 64 nM | 2.9 nM | C[C@H](Nc1cc(-c2n[nH]c(=O)o2)ccc1C(F)(F)F)C1(C)CCNCC1 [Example 144, 5-[3-{[(1S)-1-(4-methylpiperidin-4-yl)ethyl]amino}-4-(trifluoromethyl)phenyl]-1,3,4-oxadiazol-2(3H)-one hydrochloride] |
| 79 nM | 3.7 nM | N[C@H]1CC[C@H](COc2cc(-c3n[nH]c(=O)o3)ccc2Cl)CC1 [Example 241, 5-(3-{[(1r,4r)-4-aminocyclohexyl]methoxy}-4-chlorophenyl)-1,3,4-oxadiazol-2(3H)-one] |
| 30 nM | 2.8 nM | C[C@H](Nc1cc(-c2n[nH]c(=O)o2)cc(F)c1C(F)(F)F)C1(F)CCNCC1 [Example 159, 5-[3-fluoro-5-{[(1S)-1-(4-fluoropiperidin-4-yl)ethyl]amino}-4-(trifluoromethyl)phenyl]-1,3,4-oxadiazol-2(3H)-one hydrochloride] |
| 68 nM | 3.5 nM | CC[C@H](Nc1cc(-c2n[nH]c(=O)o2)ccc1C(F)(F)F)[C@H]1CC[C@H](N)CC1 [Example 181, 5-[3-({(1S)-1-[(1r,4S)-4-aminocyclohexyl]propyl}amino)-4-(trifluoromethyl)phenyl]-1,3,4-oxadiazol-2(3H)-one hydrochloride] |
| 130 nM | 8.5 nM | CN[C@H]1C[C@@H]([C@H](C)Nc2cc(-c3n[nH]c(=O)o3)cc(F)c2OC(F)(F)F)C1 [Example 208, 5-[3-fluoro-5-({(1S)-1-[(1s,3R)-3-(methylamino)cyclobutyl]ethyl}amino)-4-(trifluoromethoxy)phenyl]-1,3,4-oxadiazol-2(3H)-one] |
| 28 nM | 2 nM | C[C@H](Nc1cc(-c2n[nH]c(=O)o2)cc(Br)c1Cl)[C@H]1CC[C@H](N)CC1 [Example 171, 5-[3-({(1S)-1-[(1r,4S)-4-aminocyclohexyl]ethyl}amino)-5-bromo-4-chlorophenyl]-1,3,4-oxadiazol-2(3H)-one dihydrochloride] |
| 94 nM | 3.1 nM | COc1c(F)cc(-c2n[nH]c(=O)o2)cc1N[C@@H](C)[C@H]1CC[C@H](N)CC1 [Example 167, 5-[3-({(1S)-1-[(1r,4S)-4-aminocyclohexyl]ethyl}amino)-5-fluoro-4-methoxyphenyl]-1,3,4-oxadiazol-2(3H)-one hydrochloride] |
| 210 nM | 1.5 nM | C[C@H](Nc1cc(-c2n[nH]c(=O)o2)cc([N+](=O)[O-])c1Cl)C1CCNCC1 [Example 91, 5-(4-chloro-3-nitro-5-{[(1S)-1-(piperidin-4-yl)ethyl]amino}phenyl)-1,3,4-oxadiazol-2(3H)-one hydrochloride] |
| 140 nM | 8.1 nM | CCN[C@H]1C[C@@H]([C@H](C)Nc2cc(-c3n[nH]c(=O)o3)ccc2C(F)(F)F)C1 [Example 195, 5-[3-({(1S)-1-[(1s,3R)-3-(ethylamino)cyclobutyl]ethyl}amino)-4-(trifluoromethyl)phenyl]-1,3,4-oxadiazol-2(3H)-one hydrochloride] |
| 1900 nM | 15 nM | NCCCCNc1cc(-c2n[nH]c(=O)o2)ccc1C(F)(F)F [Example 1, 5-{3-[(4-aminobutyl)amino]-4-(trifluoromethyl)phenyl}-1,3,4-oxadiazol-2(3H)-one hydrochloride] |
| 45 nM | 1.7 nM | C[C@H](Nc1cc(-c2n[nH]c(=O)o2)cc(Br)c1Cl)[C@H]1C[C@@H](N)C1 [Example 182, 5-[3-({(1S)-1-[(1s,3R)-3-aminocyclobutyl]ethyl}amino)-5-bromo-4-chlorophenyl]-1,3,4-oxadiazol-2(3H)-one hydrochloride] |
| 820 nM | 7.6 nM | O=c1[nH]nc(-c2ccc(Cl)c(NCC3CCNCC3)c2)o1 [Example 47, 5-(4-chloro-3-{[(piperidin-4-yl)methyl]amino}phenyl)-1,3,4-oxadiazol-2(3H)-one hydrochloride] |
| 30 nM | 2.2 nM | C[C@H](Nc1cc(-c2n[nH]c(=O)o2)cc(F)c1OC(F)(F)F)[C@H]1C[C@@H](N)C1 [Example 180, 5-[3-({(1S)-1-[(1s,3R)-3-aminocyclobutyl]ethyl}amino)-5-fluoro-4-(trifluoromethoxy)phenyl]-1,3,4-oxadiazol-2(3H)-one hydrochloride] |
| 73 nM | 2.1 nM | C[C@H](Nc1cc(-c2n[nH]c(=O)o2)cc(F)c1OC(F)F)C1CCNCC1 [Example 212, 5-[4-(difluoromethoxy)-3-fluoro-5-{[(1S)-1-(piperidin-4-yl)ethyl]amino}phenyl]-1,3,4-oxadiazol-2(3H)-one] |
| 330 nM | 4.2 nM | NCC[C@H]1CC[C@H](Nc2cc(-c3n[nH]c(=O)o3)ccc2C(F)(F)F)CC1 [Example 44, 5-[3-{[(1r,4r)-4-(2-aminoethyl)cyclohexyl]amino}-4-(trifluoromethyl)phenyl]-1,3,4-oxadiazol-2(3H)-one hydrochloride] |
| 36 nM | 1.1 nM | Cc1cc(-c2n[nH]c(=O)o2)cc(N[C@@H](C)C2CCNCC2)c1Cl [Example 84, 5-(4-chloro-3-methyl-5-{[(1S)-1-(piperidin-4-yl)ethyl]amino}phenyl)-1,3,4-oxadiazol-2(3H)-one dihydrochloride] |
| 87 nM |  | C[C@H](Nc1cc(-c2n[nH]c(=O)o2)ccc1C(F)(F)F)C12CC(N)(C1)C2 [Example 185, 5-[3-{[(1S)-1-(3-aminobicyclo[1.1.1]pentan-1-yl)ethyl]amino}-4-(trifluoromethyl)phenyl]-1,3,4-oxadiazol-2(3H)-one] |
